Measured values taken from PubChem BioAssay (NCI).
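Results reflect a 48-hour exposure of cells in 96-well plates to compound at five concentrations. GI50: concentration for 50% inhibition of growth. TGI: concentration producing complete growth inhibition.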

Columns and labels:
Test in all cases: growth of human tumour cells (NCI), 48 h; in the data active = GI50 below about 0.43 µM; inactive = the rest
[1] = tested on: MCF7 breast
[2] = tested on: UACC-62 melanoma
[3] = tested on: SF-295 CNS
[4] = tested on: RPMI-8226 leukemia
[5] = tested on: SK-MEL-5 melanoma
[6] = tested on: IGROV1 ovarian
[7] = tested on: KM12 colon
[8] = tested on: SNB-75 CNS
[9] = tested on: HL-60(TB) leukemia
[10] = tested on: HCC-2998 colon
[11] = tested on: SR leukemia
[12] = tested on: UO-31 renal
[13] = tested on: OVCAR-5 ovarian
[14] = tested on: TK-10 renal
[15] = tested on: DU-145 prostate
[16] = tested on: CAKI-1 renal
[17] = tested on: HS 578T breast
[18] = tested on: HOP-92 NSCLC
[19] = tested on: CCRF-CEM leukemia
[20] = tested on: OVCAR-4 ovarian
[21] = tested on: MDA-MB-231 breast
[22] = tested on: ACHN renal
[23] = tested on: NCI-H23 lung
[24] = tested on: SNB-19 CNS
[25] = tested on: 786-0 renal
[26] = tested on: SK-MEL-2 melanoma
[27] = tested on: A498 renal
[28] = tested on: LOX IMVI melanoma
[29] = tested on: SW-620 colon
[30] = tested on: A549 NSCLC
[31] = tested on: MOLT-4 leukemia
[32] = tested on: NCI/ADR-RES ovarian
[33] = tested on: BT-549 breast
[34] = tested on: NCI-H460 lung
[35] = tested on: MDA-MB-435
[36] = tested on: HOP-62 NSCLC
[37] = tested on: NCI-H522 lung
[38] = tested on: COLO 205 colon
[39] = tested on: K-562 leukemia
[40] = tested on: OVCAR-8 ovarian
[41] = tested on: SN12C renal
[42] = tested on: NCI-H226 lung
[43] = tested on: HCT-116 colon
[44] = tested on: HT29 colon
[45] = tested on: M14 melanoma
[46] = tested on: UACC-257 melanoma
[47] = tested on: SK-MEL-28 melanoma
[48] = tested on: HCT-15 colon
[49] = tested on: U251 CNS
[50] = tested on: OVCAR-3 ovarian
[51] = tested on: PC-3 prostate
[52] = tested on: EKVX NSCLC
[53] = tested on: SF-268 CNS
[54] = tested on: SK-OV-3 ovarian
[55] = tested on: RXF 393 renal
[56] = tested on: SF-539 CNS
[57] = tested on: MALME-3M melanoma

COc1ccc(/C=C(/C(=O)N2CCCCC2)c2cc(OC)c(OC)c(OC)c2)cc1
0.935 µM: TGI [35]
4.1 µM: TGI [9]
> 100 µM: TGI [1] | TGI [2] | TGI [3] | TGI [4] | TGI [6] | TGI [7] | TGI [8] | TGI [10] | TGI [11] | TGI [12] | TGI [13] | TGI [14] | TGI [16] | TGI [17] | TGI [18] | TGI [19] | TGI [20] | TGI [21] | TGI [22] | TGI [23] | TGI [24] | TGI [25] | TGI [26] | TGI [28] | TGI [29] | TGI [30] | TGI [31] | TGI [32] | TGI [34] | TGI [36] | TGI [37] | TGI [39] | TGI [40] | TGI [41] | TGI [42] | TGI [43] | TGI [44] | TGI [45] | TGI [46] | TGI [47] | TGI [48] | TGI [49] | TGI [51] | TGI [52] | TGI [53]
17.3 µM: TGI [15]
4.9 µM: TGI [38]
active: GI50 [3] 0.422 µM | GI50 [25] 0.404 µM | GI50 [33] 0.417 µM | GI50 [35] 0.257 µM | GI50 [43] 0.379 µM | GI50 [44] 0.412 µM | GI50 [50] 0.325 µM
1.52 µM: TGI [50]
inactive: GI50 [1] 0.454 µM | GI50 [2] 0.44 µM | GI50 [4] 4.13 µM | GI50 [5] 0.753 µM | GI50 [6] 0.699 µM | GI50 [7] 0.482 µM | GI50 [8] 0.483 µM | GI50 [9] 0.441 µM | GI50 [10] 2.82 µM | GI50 [11] 0.593 µM | GI50 [12] 4.76 µM | GI50 [13] 5.26 µM | GI50 [14] > 100 µM | GI50 [15] 1.5 µM | GI50 [16] 0.492 µM | GI50 [17] 0.966 µM | GI50 [18] 12.4 µM | GI50 [19] 1.17 µM | GI50 [20] 18 µM | GI50 [21] 4.54 µM | GI50 [22] 0.713 µM | GI50 [23] 3.88 µM | GI50 [24] 0.946 µM | GI50 [26] 0.967 µM | GI50 [27] 0.682 µM | GI50 [28] 1.04 µM | GI50 [29] 0.506 µM | GI50 [30] 1.5 µM | GI50 [31] 2.06 µM | GI50 [32] 1.15 µM | GI50 [34] 0.497 µM | GI50 [36] 0.911 µM | GI50 [37] 1.7 µM | GI50 [38] 0.664 µM | GI50 [39] 0.452 µM | GI50 [40] 6.12 µM | GI50 [41] 4.52 µM | GI50 [42] 3.4 µM | GI50 [45] 0.478 µM | GI50 [46] > 100 µM | GI50 [47] 8.89 µM | GI50 [48] 0.579 µM | GI50 [49] 1.48 µM | GI50 [51] 0.527 µM | GI50 [52] 3.4 µM | GI50 [53] 1.79 µM
29.9 µM: TGI [33]
43.9 µM: TGI [5]
71.7 µM: TGI [27]

COc1cc(C(=O)O[C@H]2CCC3CCC2N3C)cc(OC)c1OC (stereo not given in full)
> 100 µM: TGI [1] | TGI [3] | TGI [54] | TGI [4] | TGI [5] | TGI [55] | TGI [7] | TGI [8] | TGI [9] | TGI [56] | TGI [10] | TGI [11] | TGI [12] | TGI [13] | TGI [14] | TGI [15] | TGI [17] | TGI [18] | TGI [19] | TGI [20] | TGI [21] | TGI [22] | TGI [23] | TGI [24] | TGI [25] | TGI [27] | TGI [28] | TGI [29] | TGI [30] | TGI [31] | TGI [32] | TGI [34] | TGI [35] | TGI [36] | TGI [57] | TGI [38] | TGI [39] | TGI [40] | TGI [41] | TGI [42] | TGI [43] | TGI [44] | TGI [45] | TGI [46] | TGI [47] | TGI [48] | TGI [49] | TGI [52] | TGI [53]
